Reference: publication PMC3985615 (Journal of medicinal chemistry, 2013)
Each block holds one molecule with its values, some of them ahead of it.

Tests used:
Hsp90α = Hsp90α (Homo sapiens, UniProt P07900); assay: FP saturation binding assay of probes, Hsp90α; conditions: mP at saturation minus mP of probe alone
Hsp90β = Hsp90β (Homo sapiens, UniProt P08238); assay: FP saturation binding assay of probes, Hsp90β; conditions: mP at saturation minus mP of probe alone
Hsp90 in SKBr3 lysate = assay: FP saturation binding of probes to Hsp90 in cancer cell lysate; design: species or system human; conditions: 4 °C
Grp94 = Grp94 (Canis lupus familiaris, UniProt P41148); assay: FP saturation binding assay of probes, Grp94; design: species or system canine; conditions: for assay window, Grp94: mP at saturation minus mP of probe alone
Chain of Grp94 (P41148 22-804): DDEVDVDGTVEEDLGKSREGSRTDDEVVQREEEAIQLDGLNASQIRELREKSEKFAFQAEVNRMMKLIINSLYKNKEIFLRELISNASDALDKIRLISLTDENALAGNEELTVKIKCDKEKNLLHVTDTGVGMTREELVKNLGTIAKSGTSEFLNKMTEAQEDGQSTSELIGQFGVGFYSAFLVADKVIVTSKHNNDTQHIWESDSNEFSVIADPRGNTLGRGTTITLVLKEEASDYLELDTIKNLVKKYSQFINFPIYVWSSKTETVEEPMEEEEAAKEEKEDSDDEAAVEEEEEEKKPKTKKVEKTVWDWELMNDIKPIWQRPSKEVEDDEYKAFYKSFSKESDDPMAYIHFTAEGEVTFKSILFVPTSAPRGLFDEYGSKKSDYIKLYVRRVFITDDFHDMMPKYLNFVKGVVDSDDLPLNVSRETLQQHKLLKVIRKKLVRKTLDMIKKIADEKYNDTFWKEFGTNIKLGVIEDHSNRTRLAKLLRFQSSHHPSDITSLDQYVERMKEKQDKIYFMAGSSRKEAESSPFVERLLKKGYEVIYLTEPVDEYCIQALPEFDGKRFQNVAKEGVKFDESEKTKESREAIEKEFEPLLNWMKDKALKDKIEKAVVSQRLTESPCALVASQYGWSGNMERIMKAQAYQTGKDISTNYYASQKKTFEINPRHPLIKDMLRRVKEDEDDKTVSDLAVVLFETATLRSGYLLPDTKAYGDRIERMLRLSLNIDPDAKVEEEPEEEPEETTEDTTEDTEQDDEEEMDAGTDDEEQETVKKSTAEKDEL

Trap-1 [1] = conditions: cited from earlier work
Trap-1 [2] = molecular target: T1, Trap-1 (Homo sapiens, UniProt Q12931); conditions: from FP competition IC50, Table 1
T1 sequence (Q12931 60-704): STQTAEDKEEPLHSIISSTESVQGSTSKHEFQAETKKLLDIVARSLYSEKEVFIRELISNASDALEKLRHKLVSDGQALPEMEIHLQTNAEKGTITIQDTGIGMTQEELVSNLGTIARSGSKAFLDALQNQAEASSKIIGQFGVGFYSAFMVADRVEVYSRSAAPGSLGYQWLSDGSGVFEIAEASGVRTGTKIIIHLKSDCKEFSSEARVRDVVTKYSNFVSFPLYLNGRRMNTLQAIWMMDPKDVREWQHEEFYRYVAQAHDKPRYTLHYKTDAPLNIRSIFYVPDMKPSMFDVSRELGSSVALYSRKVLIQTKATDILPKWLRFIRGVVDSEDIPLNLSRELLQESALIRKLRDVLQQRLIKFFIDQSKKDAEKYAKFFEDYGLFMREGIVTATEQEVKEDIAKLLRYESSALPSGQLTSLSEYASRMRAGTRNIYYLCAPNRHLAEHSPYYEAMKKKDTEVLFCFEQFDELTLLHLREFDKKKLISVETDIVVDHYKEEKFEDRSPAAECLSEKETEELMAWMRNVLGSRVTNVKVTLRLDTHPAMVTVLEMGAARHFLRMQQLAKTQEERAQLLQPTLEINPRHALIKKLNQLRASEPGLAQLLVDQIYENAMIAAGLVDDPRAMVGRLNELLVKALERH

Chain of Hsp90β (P08238 whole entry): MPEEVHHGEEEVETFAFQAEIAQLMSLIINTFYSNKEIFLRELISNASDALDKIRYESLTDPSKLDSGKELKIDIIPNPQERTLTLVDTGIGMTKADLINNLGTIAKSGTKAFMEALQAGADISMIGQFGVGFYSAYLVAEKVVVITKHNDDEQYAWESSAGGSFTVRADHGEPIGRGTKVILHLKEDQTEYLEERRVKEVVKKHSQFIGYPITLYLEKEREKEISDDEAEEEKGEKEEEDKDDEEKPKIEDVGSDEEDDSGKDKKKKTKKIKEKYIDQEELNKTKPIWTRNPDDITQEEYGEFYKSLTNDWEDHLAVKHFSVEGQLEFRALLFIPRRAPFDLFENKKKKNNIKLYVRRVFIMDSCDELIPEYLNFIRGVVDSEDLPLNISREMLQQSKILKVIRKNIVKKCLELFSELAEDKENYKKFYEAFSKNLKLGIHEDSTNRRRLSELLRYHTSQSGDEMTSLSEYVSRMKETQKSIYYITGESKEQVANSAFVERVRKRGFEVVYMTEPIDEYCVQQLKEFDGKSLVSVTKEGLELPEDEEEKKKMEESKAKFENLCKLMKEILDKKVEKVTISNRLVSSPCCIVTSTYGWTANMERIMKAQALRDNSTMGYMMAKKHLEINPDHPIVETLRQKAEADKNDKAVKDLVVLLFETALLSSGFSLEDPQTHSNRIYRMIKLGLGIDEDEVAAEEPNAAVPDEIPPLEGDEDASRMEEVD

SMILES: Nc1ncnc2c1nc(Sc1cc3c(cc1I)OCO3)n2CCCNC(=S)Nc1ccc(-c2c3ccc(=O)cc-3oc3cc(O)ccc23)c(C(=O)O)c1 [16a]
assay window, Hsp90α (Hsp90α): > 150 mP
assay window, Hsp90β (Hsp90β): > 150 mP
time binding remained stable (Hsp90 in SKBr3 lysate): more than 24 h
time to reach binding equilibrium with Hsp90 (Hsp90 in SKBr3 lysate): ≤ 8 h
assay window, Grp94 (Grp94): > 150 mP

SMILES: Nc1ncnc2c1ncn2[C@@H]1O[C@H](COP(=O)(O)OP(=O)(O)OP(=O)(O)O)[C@@H](O)[C@H]1O [ATP]
reported greater affinity of Trap-1 than of Hsp90 (Trap-1 [1]): approximately 10 fold
Kd (Trap-1 [1]; read-out: reported binding affinity for Trap-1): 34.3 µM

SMILES: COC1=C2C[C@@H](C)C[C@H](OC)[C@H](O)[C@@H](C)/C=C(\C)[C@H](OC(N)=O)[C@@H](OC)/C=C\C=C(/C)C(=O)NC(=CC1=O)C2=O [compound 1, Geldanamycin]
decrease in binding affinity for Trap-1 compared to Hsp90 (Trap-1 [2]): 25 fold

SMILES: C=CCNC1=C2C[C@@H](C)C[C@H](OC)[C@H](O)[C@@H](C)/C=C(\C)[C@H](OC(N)=O)[C@@H](OC)/C=C\C=C(/C)C(=O)NC(=CC1=O)C2=O [compound 2, 17-allyl-17-demethoxygeldanamycin]
loss of affinity for Trap-1 vs Hsp90 (Trap-1 [2]): ~2 log

SMILES: COc1c(C)cnc(Cn2cnc3c(Cl)nc(N)nc32)c1C [compound 3]
decrease in binding affinity for Trap-1 compared to Hsp90 (Trap-1 [2]): 5 fold

SMILES: CN(C)c1cc2c(cc1Sc1nc3c(N)nccc3n1CCNCC(C)(C)C)OCO2 [compound 5]
decrease in binding affinity for Trap-1 compared to Hsp90 (Trap-1 [2]): 50 fold
loss of affinity for Trap-1 vs Hsp90 (Trap-1 [2]): ~2 log

Other lines, results leading:

decrease in binding affinity for Trap-1 compared to Hsp90 (Trap-1 [2]): 5 fold
SMILES: CC(C)NCCCn1c(Sc2cc3c(cc2I)OCO3)nc2c(N)ncnc21 [compound 4]

decrease in binding affinity for Trap-1 compared to Hsp90 (Trap-1 [2]): 2 fold
SMILES: CCNC(=O)c1noc(-c2cc(C(C)C)c(O)cc2O)c1-c1ccc(CN2CCOCC2)cc1 [compound 7]

preference for Hsp90α, Hsp90β and Trap-1 over Grp94 (Grp94; from apparent Kd, saturation binding): 1 log
assay window, Grp94 (Grp94): less than 100 mP
SMILES: CC(C)N(CCCn1c(Sc2cc3c(cc2I)OCO3)nc2c(N)ncnc21)C(=S)Nc1ccc(-c2c3ccc(=O)cc-3oc3cc(O)ccc23)c(C(=O)O)c1 [compound 12]
